Entries after “also recorded” stand apart in the source; their conditions may differ. Where two headings read alike, the source gives them in different places.
How the values were obtained:
[1] = system: α1 adrenergic receptors; experiment: Binding to α1 adrenergic receptors (3H-prazosin), rat cerebral cortex homogenate; details: for affinity for the α1 receptor with respect to the α2 receptor: in words, comparison of α1 and α2 binding; for Ki: read-out: SPECIFIC BINDING, Kl, α 1, 3H-prazosin, average of three assays
Procedure: (§1) The tests were carried out on rat cerebral cortex homogenate, according to the method described by P. Greengross and R. Bremmerclaus, Eur. J. Pharmacol. (1979) 55 323-326.
(§2) The results represent the average of the three assays. The Ki values were calculated according to Cheng and Prussoff (Biochem. Parmacol. 1973 22 3099-3108).

[2] = biological target: T1, α2 adrenergic receptors (Rattus norvegicus, UniProt P22909); experiment: Binding to α2 adrenergic receptors (3H-yohimbin), rat cerebral cortex homogenate; details: for Ki: SPECIFIC BINDING, Kl, α 2, 3H-yohimbin, average of three assays
T1 construct: from tissue; host or cells: rat cerebral cortex homogenate
T1 sequence (P22909 1-465): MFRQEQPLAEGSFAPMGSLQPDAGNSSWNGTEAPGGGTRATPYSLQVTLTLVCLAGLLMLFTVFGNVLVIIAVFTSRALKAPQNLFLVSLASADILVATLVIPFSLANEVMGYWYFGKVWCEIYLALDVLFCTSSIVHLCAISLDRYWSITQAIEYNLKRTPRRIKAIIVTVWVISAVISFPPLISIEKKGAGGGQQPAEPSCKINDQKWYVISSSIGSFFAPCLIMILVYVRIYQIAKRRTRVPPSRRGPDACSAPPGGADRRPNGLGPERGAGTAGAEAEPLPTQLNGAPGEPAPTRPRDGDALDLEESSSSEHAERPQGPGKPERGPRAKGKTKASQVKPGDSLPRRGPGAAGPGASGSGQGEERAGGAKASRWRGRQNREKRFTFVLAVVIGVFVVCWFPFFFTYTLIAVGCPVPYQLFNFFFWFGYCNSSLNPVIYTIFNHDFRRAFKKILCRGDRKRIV
Procedure: as §1, §2

[3] = cat; cited from earlier work
[4] = dog; cited from earlier work
[5] = system: normotensive rat; experiment: Hypotensive activity in the anesthetized normotensive rat; assay type: in vivo; details: for effect on blood pressure: 15 minutes after i.v. administration
Procedure: The study was carried out in the normotensive rat anesthetized with pentothal (40 mg.kg^-1 i.p.). The blood pressure was measured with a catheter placed in the carotid artery and linked to a pressure cell (Statham p 23 DB) and to a recorder according to the method described by Waeldele and Stoclet (J. Pharmacol. Paris 1973, 66, 357-366). The derivatives were administered in increasing doses every 15 minutes by intravenous injection (i.v.).
Each point is the average of the values obtained in n aminals ±standard error.
In FIG. 1 the abscissae show the quantities administered of the compound to be tested, and the ordinates show the average blood pressure ΔP mm Hg.

[6] = biological target: T2, α-adrenergic receptor / phenylephrine contraction of isolated rat aorta (Rattus norvegicus, UniProt P23944); experiment: Antagonism of phenylephrine on the isolated rat aorta (α-blocking activity, Schild analysis); details: for type of antagonism against phenylephrine / affinity for the adrenergic receptor: isolated rat aorta; for r (correlation coefficient of the straight line): Schild's straight line; for r (correlation coefficient of the straight line) / n (slope of Schild's straight line) / Kb: against phenylephrine; for Kb: Schild's relation, read-out: pA2 (converted); for affinity for the adrenergic receptor: in words
T2 construct: phenylephrine on the isolated rat aorta; from tissue; host or cells: isolated rat aorta
T2 sequence (P23944 1-561): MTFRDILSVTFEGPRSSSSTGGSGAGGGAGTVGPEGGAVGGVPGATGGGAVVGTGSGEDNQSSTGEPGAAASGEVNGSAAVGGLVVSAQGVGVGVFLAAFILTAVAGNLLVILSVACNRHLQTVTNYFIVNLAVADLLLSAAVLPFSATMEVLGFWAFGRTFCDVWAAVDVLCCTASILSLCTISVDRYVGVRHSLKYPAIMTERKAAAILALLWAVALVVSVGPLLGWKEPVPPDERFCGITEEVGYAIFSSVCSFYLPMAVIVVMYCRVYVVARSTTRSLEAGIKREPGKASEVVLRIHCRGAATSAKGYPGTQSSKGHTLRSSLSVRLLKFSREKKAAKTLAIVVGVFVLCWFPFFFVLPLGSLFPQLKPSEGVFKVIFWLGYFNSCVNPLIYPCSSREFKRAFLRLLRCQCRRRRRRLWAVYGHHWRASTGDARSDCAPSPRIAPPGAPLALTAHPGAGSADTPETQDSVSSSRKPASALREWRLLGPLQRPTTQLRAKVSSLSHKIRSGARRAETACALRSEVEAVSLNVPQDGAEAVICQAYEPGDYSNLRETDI
Source text: (2) Study of α-blocking activity: study of the antagonism between the derivatives of Berbine and phenylephrine on the isolated rat aorta
The quantitative evaluation of the antagonism between the derivatives to be tested and phenylephrine was made by analysis to effect-concentration relationships in the presence and absence of antagonist and the PA2 values calculated with Schild's relation (Arunlasksha na O. and Schild H. P., Br. J. Pharmacol., 1959, 14, 48-58). […] In FIG. 2 the E effect (% of maximum contraction) in the absence and presence of STB 6 (-) is given in the ordinate, and the abscissa gives the log of the phenylephrine concentration. The different curves relate to the following concentrations:
FIG. 2b is the Schild representation (x being the ratio of phenylephrine concentrations which gives a 50% response in the presence and in the absence of STB 6 (-)). On the ordinate are Log (x-1) and on the abscissa Log [(-) STB 6].
The parameters of Schild's relation were also measured in the presence of STB 52 (-) in the same experimental conditions as for STB 6 (-).

[7] = system: mesenteric territory, electrical stimulation of the sympathetic nerves; experiment: Inhibition of sympathetic excitation in vivo: vasoconstriction of perfused mesenteric territory by electrical stimulation of sympathetic nerves; details: i.v. 0.5 mg.kg^-1; 7 Hz; rat
Procedure: (§3) This study was made for the most hypotensive derivative, STB 6. The vascular reactivity of the mesenteric territory perfused in situ in the rat was measured (according to Jackson and Campbell, Eur. J. Pharmacol., 1980, 66, 217-224). After anesthetizing of the rat with pentothal (40 mg.kg^-1 i.p.) the mesenteric territory was perfused at constant flow from a catheter diverting the blood stream of the abdominal aorta. The vasoconstrictor activity resulting from periarterial electrical excitation of the sympathetic nerves (7 Hz) and […] was measured. The activities of the Berbine derivatives administered intravenously were determined for the two types of pressure response. The results obtained are shown in FIGS. 4a and 4b in which the average blood pressure ΔP mm Hg is plotted on the ordinates and time plotted on the abscissae, the injection of the product to be tested or of the placebo (constituted by the same volume of physiological serum) being at time 0.
(§4) FIG. 4a relates to the vasoconstriction caused by electrical stimulation and FIG. 4b to that caused by noradrenalin.

[8] = system: hypertensive effects of adrenalin; details: dog; cited from earlier work
[9] = system: hypertensive patients; details: cited from earlier work
[10] = system: mesenteric territory, noradrenalin; experiment: Vasoconstriction of perfused mesenteric territory caused by noradrenalin; assay type: in vivo; details: i.v. 0.5 mg.kg^-1; noradrenalin 200 ng; rat
Procedure: as §3, §4

[11] = Toxicity in the mouse (LD50); details: in vivo, male mice
Procedure: The LD50 was determined in the mouse. The derivatives to be tested were administered in aqueous solution containing 7% dimethylformamide, by esophageal forced feeding of 0.4 ml per 20 g of body weight, to male mice weighing 20 to 25 g.

Compound: c1ccc2c(c1)CC1c3ccccc3CCN1C2 (single isomer, unassigned) [Berbine (-), 5,6,13,13a-tetrahydro-8H-dibenzo[a,g]quinolizine]
- affinity for the α1 receptor with respect to the α2 receptor [1]: comparable affinities for the α1 and α2 receptors
- Ki ([1]; rat cerebral cortex homogenate): 0.212 ± 0.026 µM
- Ki [2]: 0.14 ± 0.044 µM
- sympatholytic activity [3]: strong sympatholytic activity
- sympatholytic activity [4]: strong sympatholytic activity

Compound: COc1cc2c(cc1OC)CN1CCc3cc(O)ccc3C1C2 (single isomer, unassigned; (+)) [(+) STB 6, 10,11-dimethoxy-3-hydroxy-5,6,13,13a-tetrahydro-8H-dibenzo-[a,g]-quinolizine]
- effect on blood pressure [5]: do not induce a significant decrease in blood pressure
- type of antagonism against phenylephrine [6]: non-competitive antagonism against phenylephrine; also recorded: non-competitive antagonist of phenylephrine
- effect on vasoconstriction / pressure response caused by electrical stimulation of the sympathetic nerves [7]: does not have a significant activity; also recorded: devoid of this activity at the same doses
- Ki ([1]; rat cerebral cortex homogenate): 2.93 ± 0.363 µM
- Ki [2]: 0.901 ± 0.299 µM

Compound: c1ccc2c(c1)CC1c3ccccc3CCN1C2 (stereo not shown) [Berbine, 5,6,13,13a-tetrahydro-8H-dibenzo[a,g]quinolizine]
- effect on hypertensive effects of adrenalin [8]: reverses the hypertensive effects of adrenalin
- hypotensive activity [9]: hypotensive activity

Compound: c1ccc2c(c1)CC1c3ccccc3CCN1C2 (single isomer, unassigned) [Berbine (+), 5,6,13,13a-tetrahydro-8H-dibenzo[a,g]quinolizine]
- affinity for the α1 receptor with respect to the α2 receptor [1]: comparable affinities for the α1 and α2 receptors
- Ki ([1]; rat cerebral cortex homogenate): 4.73 ± 0.538 µM
- Ki [2]: 0.569 ± 0.137 µM

Compound: COC(=O)[C@@H]1[C@H]2C[C@H]3c4[nH]c5ccccc5c4CCN3C[C@@H]2CC[C@@H]1O [Yohimbin]
- Ki ([1]; rat cerebral cortex homogenate): 0.322 ± 0.026 µM

Compound: Oc1ccc2c(c1)CCN1Cc3ccccc3CC21 (single isomer, unassigned; (+)) [(+) STB 4, 3-hydroxy-5,6,13,13a-tetrahydro-8H-dibenzo-[a,g]-quinolizine]
- effect on blood pressure [5]: do not induce a significant decrease in blood pressure
- Ki ([1]; rat cerebral cortex homogenate): 1.22 ± 0.175 µM
- Ki [2]: 0.321 ± 0.072 µM

Compound: ^3 H-yohimbin [3H-yohimbin, reference compound]
- maximum binding, α2 receptors ([2]; radioligand): 172.5±49.9 fmoles.mg protein^-1
- Kd ([2]; read-out: KD of ligand, α2 receptors): 0.0102 µM

Compound: Oc1ccc2c(c1)CCN1Cc3ccccc3CC21 (single isomer, unassigned; (-)) [(-) STB 4, 3-hydroxy-5,6,13,13a-tetrahydro-8H-dibenzo-[a,g]-quinolizine]
- effect on blood pressure [5]: significant drop in blood pressure
- dose at which active on blood pressure ([5]; i.v.): 1 mg/kg
- Ki ([1]; rat cerebral cortex homogenate): 0.462 ± 0.01 µM
- Ki [2]: 0.307 ± 0.118 µM

Compound: COc1cc2c(cc1OC)CN1CCc3cc(O)ccc3C1C2 (single isomer, unassigned; (-)) [(-) STB 6, 10,11-dimethoxy-3-hydroxy-5,6,13,13a-tetrahydro-8H-dibenzo-[a,g]-quinolizine]
- effect on blood pressure [5]: significant drop in blood pressure
- dose at which active on blood pressure ([5]; i.v.): 1 mg/kg
- hypotensive activity, rank among the derivatives studied ([5]; i.v.): the most hypotensive of the derivatives studied
- r (correlation coefficient of the straight line) [6]: 0.99
- n (slope of Schild's straight line) [6]: 0.93
- Kb [6]: 0.0398 µM
- type of antagonism against phenylephrine [6]: competitive
- affinity for the adrenergic receptor [6]: strong affinity for the adrenergic receptor
- effect on vasoconstriction / pressure response caused by electrical stimulation of the sympathetic nerves [7]: decreases the vasoconstriction of the mesenteric territory caused by the electrical stimulation of the sympathetic nerves; also recorded: reduces the pressure response to sympathetic excitation
- effect on pressure response due to noradrenalin injection [10]: without modifying the pressure response due to noradrenalin injection
- affinity for the α1 receptor with respect to the α2 receptor [1]: strong affinity for the α1 receptor, with respect to that for the α2 receptor
- Ki ([1]; rat cerebral cortex homogenate): 0.419 ± 0.132 µM
- Ki [2]: 1.02 ± 0.335 µM

Compound: COc1cc2nc(N3CCN(C(=O)c4ccco4)CC3)nc(N)c2cc1OC [3H-prazosin, ^3 H-prazosin]
- maximum binding, α1 receptors ([1]; radioligand, rat cerebral cortex homogenate): 200±21 fmoles.mg protein^-1

Compound: COc1cc2c(cc1OC)CN1CCc3cc(OC(=O)Cc4ccccc4)ccc3C1C2 (single isomer, unassigned; (-)) [(-) STB 52, 10,11-dimethoxy-3-phenacetyloxy-5,6,13,13a-tetrahydro-8H-dibenzo-[a,g]-quinolizine]
- r (correlation coefficient of the straight line) [6]: 0.99
- n (slope of Schild's straight line) [6]: 1.00
- Kb [6]: 0.1 µM
- type of antagonism against phenylephrine [6]: as competitive an antagonist of phenylephrine as (-) STB 6
- affinity for the adrenergic receptor [6]: strong affinity for the adrenergic receptor
- LD50 ([11]; oral (esophageal forced feeding), 7% dimethylformamide in water): > 800 mg/kg
- mortality ([11]; oral, 800 mg.kg^-1 (limit of solubility)): 30%
